Experimental data from ChEMBL document CHEMBL5212743, “Selectivity Literature for EUbOPEN Chemogenomics Library wave 3” (2023).
One block for each compound: values may come before it.

How the values were obtained:
[1] = target: T1, Mitogen-activated protein kinase kinase kinase 19 (Homo sapiens) (UniProt Q56UN5); experiment: Selectivity interaction (KinomeScan (DiscoverX)) EUB0000305b MAP3K19; conditions: CellTiter-Glo assay (Promega, proliferation in ACHN cells): IC50 = […] nM, https://www.sgc-ffm.uni-frankfurt.de/#!specificprobeove, at 100 nM
T1 sequence (whole entry): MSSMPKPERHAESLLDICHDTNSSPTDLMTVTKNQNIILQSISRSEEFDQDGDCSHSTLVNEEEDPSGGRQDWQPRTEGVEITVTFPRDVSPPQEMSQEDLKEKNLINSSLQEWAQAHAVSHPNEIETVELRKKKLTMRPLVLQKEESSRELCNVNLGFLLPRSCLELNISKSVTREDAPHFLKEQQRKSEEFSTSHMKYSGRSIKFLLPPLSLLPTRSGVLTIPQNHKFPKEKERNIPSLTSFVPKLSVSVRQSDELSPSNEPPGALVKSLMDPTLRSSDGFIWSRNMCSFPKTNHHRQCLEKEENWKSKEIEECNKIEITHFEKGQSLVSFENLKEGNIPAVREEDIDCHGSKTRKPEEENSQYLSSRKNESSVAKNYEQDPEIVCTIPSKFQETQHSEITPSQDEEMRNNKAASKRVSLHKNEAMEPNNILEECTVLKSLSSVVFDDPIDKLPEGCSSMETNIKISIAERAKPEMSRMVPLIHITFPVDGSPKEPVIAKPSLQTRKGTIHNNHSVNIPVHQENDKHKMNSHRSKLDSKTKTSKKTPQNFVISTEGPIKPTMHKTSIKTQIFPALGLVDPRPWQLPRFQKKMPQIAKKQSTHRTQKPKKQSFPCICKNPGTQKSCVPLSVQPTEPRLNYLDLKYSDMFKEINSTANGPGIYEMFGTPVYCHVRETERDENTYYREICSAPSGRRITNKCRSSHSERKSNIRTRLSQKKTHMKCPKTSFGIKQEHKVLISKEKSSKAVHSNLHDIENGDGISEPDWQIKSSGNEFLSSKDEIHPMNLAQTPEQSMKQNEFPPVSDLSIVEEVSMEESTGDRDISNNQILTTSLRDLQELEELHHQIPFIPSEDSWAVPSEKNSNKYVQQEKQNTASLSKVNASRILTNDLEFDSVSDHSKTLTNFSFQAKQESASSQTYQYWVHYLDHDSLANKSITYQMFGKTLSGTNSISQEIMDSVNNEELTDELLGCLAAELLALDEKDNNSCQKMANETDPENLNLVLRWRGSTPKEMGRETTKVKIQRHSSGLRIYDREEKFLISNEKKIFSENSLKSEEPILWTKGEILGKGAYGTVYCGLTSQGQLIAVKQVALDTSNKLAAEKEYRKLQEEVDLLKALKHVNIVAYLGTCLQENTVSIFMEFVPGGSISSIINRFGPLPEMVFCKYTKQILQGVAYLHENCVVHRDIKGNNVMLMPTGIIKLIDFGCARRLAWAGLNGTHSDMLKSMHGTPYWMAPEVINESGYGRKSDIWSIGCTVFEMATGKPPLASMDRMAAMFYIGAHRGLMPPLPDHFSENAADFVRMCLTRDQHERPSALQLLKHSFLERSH

[2] = target: Tyrosine-protein kinase SYK (Homo sapiens, UniProt P43405); experiment: Selectivity interaction (KinomeScan (DiscoverX)) EUB0000305b SYK; conditions: CellTiter-Glo assay (Promega, proliferation in ACHN cells): IC50 = […] nM, https://www.sgc-ffm.uni-frankfurt.de/#!specificprobeove, at 100 nM
[3] = target: T2, Phosphatidylinositol 5-phosphate 4-kinase type-2 gamma (Homo sapiens) (UniProt Q8TBX8); experiment: Selectivity interaction (KinomeScan (DiscoverX)) EUB0000169b PIP4K2C; conditions: at 1 µM
T2 sequence (whole entry): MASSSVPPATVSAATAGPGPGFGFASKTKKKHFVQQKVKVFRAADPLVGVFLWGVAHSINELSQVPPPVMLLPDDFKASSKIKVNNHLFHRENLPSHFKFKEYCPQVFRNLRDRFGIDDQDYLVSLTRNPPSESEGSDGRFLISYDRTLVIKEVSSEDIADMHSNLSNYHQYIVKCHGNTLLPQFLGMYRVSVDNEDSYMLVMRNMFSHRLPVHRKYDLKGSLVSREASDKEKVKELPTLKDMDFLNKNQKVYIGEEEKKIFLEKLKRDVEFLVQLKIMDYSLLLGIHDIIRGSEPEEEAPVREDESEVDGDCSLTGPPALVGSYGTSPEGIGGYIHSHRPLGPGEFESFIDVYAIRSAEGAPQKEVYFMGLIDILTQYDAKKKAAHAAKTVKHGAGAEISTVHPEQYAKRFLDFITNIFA

[4] = target: Glycogen synthase kinase-3 beta (Homo sapiens, UniProt P49841); experiment: Selectivity interaction (Kinase panel (University of Dundee)) EUB0000169b GSK3B; conditions: at 10 µM
[5] = target: Serine/threonine-protein kinase PLK3 (Homo sapiens, UniProt Q9H4B4); experiment: Selectivity interaction (KinomeScan (DiscoverX)) EUB0000169b PLK3; conditions: at 1 µM
Sequence of Serine/threonine-protein kinase PLK3 (Q9H4B4 whole entry, looked up): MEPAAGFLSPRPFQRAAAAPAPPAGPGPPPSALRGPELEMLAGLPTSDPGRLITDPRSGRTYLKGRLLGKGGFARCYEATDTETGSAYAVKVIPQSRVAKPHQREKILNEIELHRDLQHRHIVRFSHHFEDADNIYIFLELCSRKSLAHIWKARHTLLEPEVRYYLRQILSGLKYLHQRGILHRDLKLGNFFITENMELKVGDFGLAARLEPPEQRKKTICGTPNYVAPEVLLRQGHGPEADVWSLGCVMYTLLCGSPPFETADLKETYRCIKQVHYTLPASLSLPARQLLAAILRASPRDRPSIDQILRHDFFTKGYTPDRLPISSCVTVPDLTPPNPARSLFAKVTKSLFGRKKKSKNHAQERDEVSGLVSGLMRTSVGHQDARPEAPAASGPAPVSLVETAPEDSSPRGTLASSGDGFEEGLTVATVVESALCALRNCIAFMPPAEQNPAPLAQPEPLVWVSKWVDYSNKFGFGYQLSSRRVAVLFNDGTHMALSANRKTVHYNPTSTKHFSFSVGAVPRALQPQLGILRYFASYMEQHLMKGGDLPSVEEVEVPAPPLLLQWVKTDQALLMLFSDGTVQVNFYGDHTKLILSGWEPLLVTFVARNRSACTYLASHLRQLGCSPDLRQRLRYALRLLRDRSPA

[6] = target: Mitogen-activated protein kinase kinase kinase 2 (Homo sapiens) (UniProt Q9Y2U5); experiment: Selectivity interaction (KinomeScan (DiscoverX)) EUB0000178b MAP3K2; conditions: at 1 µM
Sequence of Mitogen-activated protein kinase kinase kinase 2 (Homo sapiens) (Q9Y2U5 whole entry): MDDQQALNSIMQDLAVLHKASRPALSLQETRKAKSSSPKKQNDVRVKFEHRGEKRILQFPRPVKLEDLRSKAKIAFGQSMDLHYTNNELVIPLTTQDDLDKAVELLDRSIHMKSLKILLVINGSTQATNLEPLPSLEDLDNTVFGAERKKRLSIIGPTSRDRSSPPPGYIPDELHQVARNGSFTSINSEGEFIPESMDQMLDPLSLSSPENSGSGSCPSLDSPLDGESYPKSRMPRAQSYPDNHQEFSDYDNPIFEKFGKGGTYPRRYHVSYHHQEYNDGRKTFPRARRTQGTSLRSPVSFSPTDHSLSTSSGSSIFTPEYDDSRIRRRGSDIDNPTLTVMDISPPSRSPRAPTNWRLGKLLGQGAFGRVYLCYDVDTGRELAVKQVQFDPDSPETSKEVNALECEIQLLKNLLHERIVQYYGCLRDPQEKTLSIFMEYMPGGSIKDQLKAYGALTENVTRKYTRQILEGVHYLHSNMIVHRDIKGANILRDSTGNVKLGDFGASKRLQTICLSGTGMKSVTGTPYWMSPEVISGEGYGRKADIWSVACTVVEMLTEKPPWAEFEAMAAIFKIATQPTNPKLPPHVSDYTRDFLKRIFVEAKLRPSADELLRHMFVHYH

[7] = target: High affinity nerve growth factor receptor (Homo sapiens, UniProt P04629); experiment: Selectivity interaction (KinomeScan (DiscoverX)) EUB0000702a NTRK1; conditions: at 1 µM
Sequence of High affinity nerve growth factor receptor (P04629 33-796 limits assumed): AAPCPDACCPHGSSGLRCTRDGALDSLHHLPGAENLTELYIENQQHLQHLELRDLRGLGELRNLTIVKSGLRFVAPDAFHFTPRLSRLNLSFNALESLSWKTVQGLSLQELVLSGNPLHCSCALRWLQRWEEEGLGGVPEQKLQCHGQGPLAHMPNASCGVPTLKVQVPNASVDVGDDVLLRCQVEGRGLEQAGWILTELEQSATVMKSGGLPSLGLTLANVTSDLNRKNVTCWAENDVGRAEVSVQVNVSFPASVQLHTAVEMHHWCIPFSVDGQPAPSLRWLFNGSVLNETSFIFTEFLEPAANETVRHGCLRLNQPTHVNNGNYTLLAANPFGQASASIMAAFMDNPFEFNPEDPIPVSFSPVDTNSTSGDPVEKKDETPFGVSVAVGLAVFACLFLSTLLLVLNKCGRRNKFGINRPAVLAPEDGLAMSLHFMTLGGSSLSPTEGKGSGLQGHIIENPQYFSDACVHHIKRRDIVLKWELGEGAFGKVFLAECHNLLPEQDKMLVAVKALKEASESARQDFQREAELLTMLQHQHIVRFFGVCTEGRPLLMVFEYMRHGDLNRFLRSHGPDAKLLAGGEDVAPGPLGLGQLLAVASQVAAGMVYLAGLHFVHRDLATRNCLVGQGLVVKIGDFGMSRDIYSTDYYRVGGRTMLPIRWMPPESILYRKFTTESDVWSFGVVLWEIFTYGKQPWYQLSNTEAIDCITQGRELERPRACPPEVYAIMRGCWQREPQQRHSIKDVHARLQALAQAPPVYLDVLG

[8] = target: Tyrosine-protein kinase JAK2 (Homo sapiens, UniProt O60674); experiment: Selectivity interaction (KinomeScan (DiscoverX)) EUB0000702a JAK2; conditions: at 1 µM
Sequence of Tyrosine-protein kinase JAK2 (O60674 whole entry): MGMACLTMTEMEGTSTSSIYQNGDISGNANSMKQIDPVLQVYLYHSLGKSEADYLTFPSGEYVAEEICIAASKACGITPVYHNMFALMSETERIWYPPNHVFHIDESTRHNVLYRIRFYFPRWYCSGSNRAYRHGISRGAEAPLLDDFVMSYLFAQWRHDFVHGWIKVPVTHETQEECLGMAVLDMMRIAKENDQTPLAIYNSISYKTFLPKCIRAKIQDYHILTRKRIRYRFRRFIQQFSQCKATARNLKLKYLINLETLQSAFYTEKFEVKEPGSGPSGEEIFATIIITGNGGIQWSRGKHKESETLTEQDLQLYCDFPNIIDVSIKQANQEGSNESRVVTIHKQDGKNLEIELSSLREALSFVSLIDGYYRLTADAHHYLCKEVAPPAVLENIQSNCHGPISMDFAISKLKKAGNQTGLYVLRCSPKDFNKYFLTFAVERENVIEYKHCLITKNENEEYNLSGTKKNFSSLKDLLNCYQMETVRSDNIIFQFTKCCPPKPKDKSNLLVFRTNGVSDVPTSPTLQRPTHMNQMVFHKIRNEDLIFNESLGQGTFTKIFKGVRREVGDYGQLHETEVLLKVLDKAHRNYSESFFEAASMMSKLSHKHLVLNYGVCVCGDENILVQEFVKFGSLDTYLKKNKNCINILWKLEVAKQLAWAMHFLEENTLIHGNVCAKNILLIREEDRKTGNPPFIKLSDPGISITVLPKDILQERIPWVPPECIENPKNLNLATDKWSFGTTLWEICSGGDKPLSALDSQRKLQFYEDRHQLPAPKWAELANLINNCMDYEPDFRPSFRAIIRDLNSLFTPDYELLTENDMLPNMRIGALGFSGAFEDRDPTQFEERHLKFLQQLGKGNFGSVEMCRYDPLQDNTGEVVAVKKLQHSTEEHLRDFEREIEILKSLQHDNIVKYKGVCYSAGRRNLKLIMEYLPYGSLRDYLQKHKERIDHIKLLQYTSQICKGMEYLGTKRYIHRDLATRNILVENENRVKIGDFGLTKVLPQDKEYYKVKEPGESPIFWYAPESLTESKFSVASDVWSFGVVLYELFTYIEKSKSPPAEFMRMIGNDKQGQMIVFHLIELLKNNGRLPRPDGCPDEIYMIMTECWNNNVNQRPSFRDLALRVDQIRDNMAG

[9] = target: Serine/threonine-protein kinase Chk2 (Homo sapiens, UniProt O96017); experiment: Selectivity interaction (KinomeScan (DiscoverX)) EUB0000702a CHEK2; conditions: at 1 µM
Sequence of Serine/threonine-protein kinase Chk2 (O96017 whole entry): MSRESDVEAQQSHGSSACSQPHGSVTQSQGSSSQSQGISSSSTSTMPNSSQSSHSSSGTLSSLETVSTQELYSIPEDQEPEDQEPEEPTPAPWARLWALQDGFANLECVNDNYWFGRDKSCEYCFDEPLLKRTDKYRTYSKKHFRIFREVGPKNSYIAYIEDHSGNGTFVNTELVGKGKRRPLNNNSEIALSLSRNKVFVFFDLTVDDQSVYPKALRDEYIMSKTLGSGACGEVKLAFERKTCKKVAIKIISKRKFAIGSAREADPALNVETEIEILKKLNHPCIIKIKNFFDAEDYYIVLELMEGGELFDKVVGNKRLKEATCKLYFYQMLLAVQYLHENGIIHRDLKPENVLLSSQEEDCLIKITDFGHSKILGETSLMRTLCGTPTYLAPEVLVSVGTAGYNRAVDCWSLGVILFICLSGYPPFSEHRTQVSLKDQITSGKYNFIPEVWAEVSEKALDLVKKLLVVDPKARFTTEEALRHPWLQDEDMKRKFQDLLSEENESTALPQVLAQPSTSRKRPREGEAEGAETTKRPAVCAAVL

[10] = target: Tyrosine-protein kinase HCK (Homo sapiens, UniProt P08631); conditions: at 1 µM
[11] = target: NT-3 growth factor receptor (Homo sapiens, UniProt Q16288); conditions: at 1 µM
Sequence of NT-3 growth factor receptor (Q16288 whole entry, looked up): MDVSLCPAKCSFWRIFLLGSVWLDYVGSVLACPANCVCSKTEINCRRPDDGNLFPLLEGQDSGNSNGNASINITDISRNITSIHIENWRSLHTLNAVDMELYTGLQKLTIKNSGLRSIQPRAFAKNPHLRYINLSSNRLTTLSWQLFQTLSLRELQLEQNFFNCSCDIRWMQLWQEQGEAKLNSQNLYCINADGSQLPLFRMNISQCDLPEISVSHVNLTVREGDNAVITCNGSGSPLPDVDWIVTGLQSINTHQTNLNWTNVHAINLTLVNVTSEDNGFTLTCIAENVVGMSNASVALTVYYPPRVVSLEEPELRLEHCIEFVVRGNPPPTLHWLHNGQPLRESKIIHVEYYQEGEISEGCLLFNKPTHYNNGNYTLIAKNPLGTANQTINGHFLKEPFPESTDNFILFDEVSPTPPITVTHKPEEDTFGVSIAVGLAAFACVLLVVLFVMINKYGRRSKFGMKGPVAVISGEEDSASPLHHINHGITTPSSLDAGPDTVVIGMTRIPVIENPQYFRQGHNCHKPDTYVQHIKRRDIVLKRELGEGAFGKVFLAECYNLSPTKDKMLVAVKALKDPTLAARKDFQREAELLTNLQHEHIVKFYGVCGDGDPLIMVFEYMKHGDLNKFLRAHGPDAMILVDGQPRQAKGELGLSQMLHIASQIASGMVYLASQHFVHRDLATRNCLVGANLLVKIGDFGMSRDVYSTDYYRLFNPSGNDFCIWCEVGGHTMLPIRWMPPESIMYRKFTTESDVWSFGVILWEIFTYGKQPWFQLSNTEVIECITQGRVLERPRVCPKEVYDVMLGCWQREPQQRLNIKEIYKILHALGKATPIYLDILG

[12] = target: Cyclin-dependent kinase 8 (Homo sapiens) (UniProt P49336); conditions: at 1 µM
Sequence of Cyclin-dependent kinase 8 (Homo sapiens) (P49336 whole entry): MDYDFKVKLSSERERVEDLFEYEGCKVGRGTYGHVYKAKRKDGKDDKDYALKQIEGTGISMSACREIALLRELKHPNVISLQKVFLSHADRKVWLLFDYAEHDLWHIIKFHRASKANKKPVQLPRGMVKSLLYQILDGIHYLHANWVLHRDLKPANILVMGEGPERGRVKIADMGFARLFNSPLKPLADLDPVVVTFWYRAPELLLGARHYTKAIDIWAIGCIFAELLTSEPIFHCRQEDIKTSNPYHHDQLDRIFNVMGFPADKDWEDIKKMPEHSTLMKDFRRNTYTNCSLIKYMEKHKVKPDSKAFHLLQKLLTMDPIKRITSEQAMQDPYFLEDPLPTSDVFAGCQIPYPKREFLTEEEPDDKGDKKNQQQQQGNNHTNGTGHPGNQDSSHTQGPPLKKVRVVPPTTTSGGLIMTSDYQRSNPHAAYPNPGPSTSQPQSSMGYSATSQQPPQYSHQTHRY

- % of control [1]: 10%
- % of control [2]: 31%
SMILES: C[C@H](c1ccnc(Nc2nc3ccc(-c4cc(N(C)C)ncn4)cc3[nH]2)c1)N1CCN(C(=O)CC(F)(F)F)CC1 [BAY-985]

- % of control [3]: 4.2%
- % of control [4]: 69%
- % of control [5]: 0.5%
SMILES: CC[C@@H]1C(=O)N(C)c2cnc(Nc3ccc(C(=O)NC4CCN(C)CC4)cc3OC)nc2N1C1CCCC1

- % of control [6]: 2.6%
SMILES: CN1C(=O)c2sccc2N(C)c2nc(Nc3ccc(S(N)(=O)=O)cc3)ncc21

- % of control [7]: 10%
- % of control [8]: 3.8%
- % of control [9]: 0%
SMILES: CN(c1ccnc(CNc2nc(Nc3ccc4c(c3)CC(=O)N4)ncc2C(F)(F)F)n1)S(C)(=O)=O [PF-00911705]

SMILES: CCOc1cn(-c2ccc(F)cc2C)nc1C(=O)Nc1ccc(Oc2ccnc3cc(OC)c(OC)cc23)c(F)c1
- % of control [10]: < 10%
- % of control [11]: < 10%
- % of control [12]: < 10%
